Where no end group is shown, it is not given here.
Target: T1, XPS1 ectodomain (Arabidopsis thaliana, UniProt Q9SD62)
T1 construct: The extracellular domain of XPS1 (amino acids 36-650) was cloned by ligation independent cloning; made in house; host or cells: Hi5 insect cells, baculovirus (pMelBac B)
T1 sequence (Q9SD62 36-650): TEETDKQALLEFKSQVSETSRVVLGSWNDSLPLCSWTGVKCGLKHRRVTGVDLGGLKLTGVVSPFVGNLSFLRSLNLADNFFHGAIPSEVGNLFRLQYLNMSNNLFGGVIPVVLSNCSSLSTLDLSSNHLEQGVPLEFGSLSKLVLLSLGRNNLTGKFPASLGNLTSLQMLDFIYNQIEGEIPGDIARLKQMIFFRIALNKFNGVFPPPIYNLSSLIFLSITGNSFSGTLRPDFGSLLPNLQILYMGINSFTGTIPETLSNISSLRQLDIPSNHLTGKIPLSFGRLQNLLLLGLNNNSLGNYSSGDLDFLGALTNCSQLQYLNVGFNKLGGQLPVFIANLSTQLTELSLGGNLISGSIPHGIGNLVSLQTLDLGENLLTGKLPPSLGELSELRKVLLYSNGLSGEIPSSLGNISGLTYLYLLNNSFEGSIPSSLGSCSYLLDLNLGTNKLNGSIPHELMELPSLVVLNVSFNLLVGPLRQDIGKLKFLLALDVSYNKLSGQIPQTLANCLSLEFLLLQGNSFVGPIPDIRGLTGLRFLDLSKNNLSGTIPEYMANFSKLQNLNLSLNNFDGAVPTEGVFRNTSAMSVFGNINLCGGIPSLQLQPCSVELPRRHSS
Test: biochemical
Format: binding
Method: For XPS1 expression in Hi5 cells, the ectodomain of XPS1 (36-650) was inserted into the baculovirus transfer vector pMelBac B (Invitrogen). The extracellular domain of XPS1 (amino acids 36-650) was cloned by ligation independent cloning between the existing Honey bee melettin signal sequence and the C-terminal Strep II-9x His tag. […] The StrepII-9x His fused XPS1 ectodomain was produced by secreted expression in baculovirus-infected insect cells, harvested 72 h post infection and purified by Ni-NTA affinity chromatography (Qiagen). The samples were processed twice with a Superdex 200 16/60 column (GE Healthcare) pre-equilibrated with 10 mM Bis-Tris pH 6.0, 150 mM NaCl. Protein purity was checked by SDS-PAGE.
The XPS1 ectodomain was kept at a constant concentration (0.5 μM) in a buffer containing 10 mM Bis-Tris pH6, 150 mM NaCl, 5 % glycerol and 0.01 % Tween, whereas varying peptide concentrations were added. Approximately 4–6 μL of each sample was loaded in a fused silica capillary (NanoTemper Technologies). Measurements were performed at room temperature in a Monolith NT.label free instrument at a constant LED power of 20 and MST power of 60 %. Measurements were performed repeatedly on two independent protein preparations to ensure reproducibility. […] Curve fitting was performed by using the NT affinity analysis software from Nanotemper.

Sequence	EC50 of binding to XPS1 ECD (additional replicate (Figure S7), XPS1 ECD 0.5 μM, pH6, MST power 60 %, NT affinity analysis)	Kd (read-out: KD of binding to XPS1 ECD)	Apparent EC50 range of XPS1 for peptide	EC50	Overall KD of XPS1 binding
QRLSTGSRINSAKDDAAGLQIA [flg22, reference compound]	could not be fitted using the EC50 fit	13.1 µM			
LIPEGKVAVTTTQAATERKPLEQPR [xup25]			in the high nM range	0.381 µM	not able to calculate an accurate overall KD
